Values joined by “and” are separate entries in the source; they are usually repeats but may differ in a detail not shown here. Identical values can stand only once. Like-named read-outs stand apart in the source and are kept apart here.
Columns and labels:
Assay in all cases: Chemosensitivity, 96 h continuous exposure, MTT assay
Format in all cases: cell-based, human
HCT116 p53-/- = test system: HCT116 p53-/-
Outline: (§1)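 Growth inhibition is measured by MTT after cells are dosed for 96 h without washout. The 50% growth-reduction concentration is then interpolated from the curves.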

HT-29 = test system: HT-29
Outline: as §1

MiaPaCa2 = test system: MiaPaCa2
Outline: as §1

PSN1 = test system: PSN1
Outline: as §1

CC(=O)[O-].CC(=O)[O-].CC(=O)[O-].O=P([O-])([O-])[O-].[Zn+2].[Zn+2].[Zn+2].c1ccc(-c2csc(NCCN(CCNc3nc(-c4ccccn4)cs3)CCNc3nc(-c4ccccn4)cs3)n2)nc1.c1ccc(-c2csc(NCCN(CCNc3nc(-c4ccccn4)cs3)CCNc3nc(-c4ccccn4)cs3)n2)nc1 [[L2Zn3(PO4)]3+]
IC50 (HCT116 p53-/-; HCT116 p53-/-, read-out: Mean IC50 values): 0.078 µM
IC50 (HCT116 p53-/-; HCT116 p53-/-, single replicate, read-out: IC50 values for each replicate): 0.061 µM and 0.091 µM and 0.064 µM
Selectivity index (ARPE19) (HCT116 p53-/-; IC50 ARPE-19 / IC50 HCT116 p53-/-): 1679.10
Selectivity index (MCF10A) (HCT116 p53-/-; IC50 MCF10A / IC50 HCT116 p53-/-): 184.91
Relative potency (+ anion to no anion), Ratio + anion:no anion (HCT116 p53-/-; ratio of IC50, HCT116 p53-/-): 1.08
Selectivity indices relative to ARPE-19, Ratio + anion:no anion (HCT116 p53-/-; ratio of SI (ARPE-19), HCT116 p53-/-): 0.769
Selectivity indices relative to MCF10A, Ratio + anion:no anion (HCT116 p53-/-; ratio of SI (MCF 10A), HCT116 p53-/-): 0.082
IC50 (HT-29; HT29, mean of replicates, read-out: Mean IC50): 0.214 µM
IC50 (HT-29; HT29, read-out: Mean IC50 values): 0.214 µM
IC50 (HT-29; HT-29, single replicate, read-out: IC50 values for each replicate): 0.091 µM and 0.254 µM and 0.236 µM and 0.228 µM and 0.262 µM
Selectivity index (ARPE19) (HT-29; IC50 ARPE-19 / IC50 HT29): 612.01
Selectivity index (MCF10A) (HT-29; IC50 MCF10A / IC50 HT29): 67.40
Relative potency (+ anion to no anion), Ratio + anion:no anion (HT-29; ratio of IC50, HT29): 1.27
Selectivity indices relative to ARPE-19, Ratio + anion:no anion (HT-29; ratio of SI (ARPE-19), HT29): 0.658
Selectivity indices relative to MCF10A, Ratio + anion:no anion (HT-29; ratio of SI (MCF 10A), HT29): 0.070
Selectivity index (ARPE19) (MiaPaCa2; IC50 ARPE-19 / IC50 MiaPaCa2): 2.94
Selectivity index (MCF10A) (MiaPaCa2; IC50 MCF10A / IC50 MiaPaCa2): 0.32
IC50 (MiaPaCa2; MiaPaCa2, mean of replicates, read-out: Mean IC50): 44.5 µM
IC50 (MiaPaCa2; MiaPaCa2, read-out: Mean IC50 values): 44.5 µM
IC50 (MiaPaCa2; MiaPaCa2, single replicate, read-out: IC50 values for each replicate): 52.4 µM and 49.8 µM and 47.6 µM and 22 µM and 50.8 µM
Relative potency (+ anion to no anion), Ratio + anion:no anion (MiaPaCa2; ratio of IC50, MiaPaCa2): 0.75
Selectivity indices relative to ARPE-19, Ratio + anion:no anion (MiaPaCa2; ratio of SI (ARPE-19), MiaPaCa2): 1.106
Selectivity indices relative to MCF10A, Ratio + anion:no anion (MiaPaCa2; ratio of SI (MCF 10A), MiaPaCa2): 0.118
Selectivity index (ARPE19) (PSN1; IC50 ARPE-19 / IC50 PSN1): 19.60
Selectivity index (MCF10A) (PSN1; IC50 MCF10A / IC50 PSN1): 2.16
IC50 (PSN1; PSN1, mean of replicates, read-out: Mean IC50): 6.68 µM
IC50 (PSN1; PSN1, read-out: Mean IC50 values): 6.68 µM
IC50 (PSN1; PSN1, single replicate, read-out: IC50 values for each replicate): 6.73 µM and 6.48 µM and 6.84 µM
Relative potency (+ anion to no anion), Ratio + anion:no anion (PSN1; ratio of IC50, PSN1): 1.50
Selectivity indices relative to ARPE-19, Ratio + anion:no anion (PSN1; ratio of SI (ARPE-19), PSN1): 0.554
Selectivity indices relative to MCF10A, Ratio + anion:no anion (PSN1; ratio of SI (MCF 10A), PSN1): 0.059

Source: PMC8222254, “Self-assembly of an anion receptor with metal-dependent kinase inhibition and potent in vitro anti-cancer properties” (Nature Communications, 2021)
